Entries after “also recorded” stand apart in the source; their conditions may differ. Structures can show the parent of a compound that is named as a salt.
Experiments:
[1] = test system: CRTC-1::RFP localization in C. elegans intestinal cells; assay: CRTC-1::RFP localization during tricaine time course (microscopy); type: in vivo
Experimental: Except for tricaine time course experiments, worms were in 5 μl anesthetic mounted on 2% agarose pads on glass slides under glass cover slips. All photos were taken using a Zeiss Axiovert microscope & Axiocam. Pictures in FIGS. 2a and 3b used apotome optical sectioning. For the tricaine experiments (FIG. 4a&b), L4 worms were placed in wells of a 96 well plate in 100 μl of tetramisole/M9 with or without tricaine (2 mg/ml). Pictures were taken during time course through the 96 well plate.

[2] = test system: CRTC-1::RFP localization in intestinal cells; assay: Kinase redundancy assay: CRTC-1::RFP localization after tricaine treatment and removal; type: in vivo, C. elegans
Experimental: Worms were subjected to RNAi for AMPK family kinases from hatch. 24 hours post L4 worms were then picked into M9 with tricaine (2 mg/ml) in wells of a […]. Worms were left on a rotational shaker at 20° C. for 2 hours. Using a glass pipette (Mair, W. A simple yet effective method to manipulate C. elegans in liquid. Worm Breeders Gazette 18 (2009)), worms were then placed onto NG plates seeded with E. coli (0P50). When tricaine solution had evaporated (approx 20 min), worms were picked onto fresh OP50 plates, 5 worms per plate. […] Time=0 was when moved to fresh OP50 plates.

[3] = aak-1 (tm1944), aak-2 (ok524) mutants (AMPK null)

Structure (SMILES)	effect on CRTC-1 localization ([1]; 0.1 mg/ml in M9 as anesthetic, pilot experiments)	CRTC-1::RFP localization ([1]; CRTC-1::RFP with calcineurin (TAX-6) binding site mutated, 60 minutes of tricaine treatment)	CRTC-1::RFP localization ([1]; tax-6 (ok2065) deletion mutant, up to 2 hours of tricaine treatment)	CRTC-1::RFP localization ([1]; wild type background, intestinal cells, tricaine (2 mg/ml) in M9)	time to CRTC-1::RFP nuclear localization ([1]; wild type background, tricaine added in M9)	re-location of CRTC-1::RFP to the cytosol upon drug removal [2, 3]	tricaine-induced nuclear localization of CRTC-1::RFP [2, 3]	re-location of CRTC-1::RFP to the cytosol upon drug removal ([2]; aak-1 (tm1944), aak-2 (ok524) mutants (AMPK null), listed as Tricaine)	reversibility of CRTC-1 nuclear localization after drug removal ([2]; wild type background)
c1ccc(C2CN3CCSC3=N2)cc1 (stereo not drawn) [tetramisole hydrochloride]	no effect	–	–	–	–	–	–	–	–
CCOC(=O)c1cccc(N)c1 [tricaine]	–	did not shuttle into the nucleus; also recorded: no effect	invariably cytosolic; also recorded: does not respond	rapid nuclear localization	≤ 30 min	relocated to the cytoplasm	expedited	delayed	reversible within two hours
